From patent US20200399238A1, “THERAPEUTIC AURONES” (MIDDLE TENNESSEE STATE UNIVERSITY, priority 2016, published 2020)
Read-outs that look alike come from different tables or passages of the source.

How the values were obtained:
[1] = test system: Trypanosoma brucei brucei 427 cells; assay: T. brucei culture and assay (PrestoBlue); format: cell-based; settings: for IC50: Trypanosoma brucei
[2] = test system: Leishmania amazonensis promastigotes expressing beta-lactamase; assay: microbe, parasite or virus in culture; format: cell-based; settings: for IC50: Leishmania amazonensis
Protocol: Leishmania amazonensis promastigotes expressing beta-lactamase (Buckner et al., Am. J. Trop. Med. Hyg. 72 (2005) 600-605. doi:72/5/600 [pii]) were cultured in RPMI supplemented with 10% fetal calf serum and 1% pen-strep-glut solution (Sigma) at 27° C. Stationary phase promastigotes were adjusted in fresh media, treated with compounds, and incubated at 37° C. At 24 hours, 100 uL of cultures was added to 50 uL of the CellTiter Glo® solution. Luminescence readings were taken with a spectrophotometer and used to calculate inhibition.

[3] = test system: rat skeletal muscle cell line, L6; assay: cells; format: cell-based
Protocol: Cells were maintained in high glucose DMEM obtained from HyClone Laboratories (Logan, Utah) and supplemented with FCS and P/S at the same concentrations used for parasite culture. Cells were passaged every 3-4 days and maintained in a 37° C. humidified incubator in an atmosphere of 5% CO2. For assays. cells were detached, counted using a hemocytometer, and adjusted using fresh media to deliver 5×10^3 cells per well (90 μL) in black walled, flat clear bottom 96-well microtiter plates. After 3 h incubation for attachment, compounds diluted in culture medium were added (10 μL) to triplicate wells. Positive controls (cells treated with podophyllotoxin (Sigma, St. Louis, Mo.)), negative controls (untreated cells), solvent controls (DMSO) and media blanks were included on each plate. Following incubation for 71.5 h, 11 μL of PrestoBlue was added into each well.

[4] = test system: Trypanosoma cruzi Tulahuen cells expressing beta-galactosidase; assay: T. cruzi intracellular assay (beta-galactosidase, L6 host cells); settings: for IC50: Trypanosoma cruzi, TULAHUEN; for Selectivity L6/TC-I: Table 3A, estimated from highest L6 dose tested where no L6 IC50
Protocol: Trypanosoma cruzi Tulahuen cells expressing beta-galactosidase (Buckner et al., Antimicrob. Agents Chemother. 40 (1996) 2592-2597) were cultured using the L6 cell line as a host cell. Adherent L6 cultures were infected with freshly burst T. cruzi trypomastigotes. Approximately 4-6 days later freshly burst trypomastigotes were collected and used to maintain cultures For assays, trypomastigotes were centrifuged to a loose pellet and incubated for 3 hours to allow the trypomastigote forms to swim out of the pellet. Cells were adjusted for addition to intracellular or extracellular assays. […] For intracellular assays, cells were added to adherent L6 cells using an infection ratio of 1:1 and immediately treated with compounds. At 96 hours incubations, a solution containing chlorophenol-red-B-D-beta-galactopyranosidase (Sigma) and a lysis agent were added. After an additional 2 hour incubation, a spectrophotometer was used to quantify the resulting color change (or lack thereof) which was used to calculate inhibition.
The percentage of cell inhibition was calculated using the formula: Percent Inhibition=1−((Treated Sample value−Medium only value)/(Untreated value−Medium only value))×100. Results are expressed as the mean of two or more independent trials.

[5] = Table 1, mean of 2(+) independent trials, read-out: IC50 T. brucei
[6] = Rattus norvegicus, Table 1, read-out: IC50 Toxicity (L6)
[7] = read-out: IC50 T. cruzi, Table 1, intracellular assay, mean of 2(+) trials (^c one trial)
[8] = read-out: IC50 T. cruzi, Table 2, intracellular assay, mean of 2(+) independent trials
[9] = Rattus norvegicus, Table 3B, weighted means of two or more independent trials, read-out: IC50 L6
[10] = read-out: IC50 TC-I, Table 3B, weighted means of two or more independent trials
[11] = Table 2, L6 IC50 / T. brucei IC50
[12] = Table 3A, estimated from highest L6 dose tested where no L6 IC50
[13] = Table 2, L6 IC50 / L. amazonensis IC50
[14] = Rattus norvegicus, Table 3A, weighted means of two or more independent trials, read-out: IC50 L6
[15] = Table 2, L6 mammalian cells, read-out: IC50 Toxicity (L6)
[16] = Table 1, intracellular T. cruzi IC50
[17] = Table 2, L6 IC50 / T. cruzi IC50 (intracellular assay)
[18] = read-out: IC50 TC-I, Table 3A, weighted means of two or more independent trials

| SMILES | IC50 [1, 5] [µM] | IC50 ([2]; read-out: IC50 L. amaz.) [µM] | IC50 [3, 6] [µM] | IC50 [4, 7] [µM] | IC50 [4, 8] [µM] | also measured |
| --- | --- | --- | --- | --- | --- | --- |
| COc1cc(/C=C2\Oc3ccccc3C2=O)cc(OC)c1OC [Aurone 2002] | > 50 | 12.6 | > 100 | > 50 | – | – |
| O=C1/C(=C/c2ccc(Br)cc2)Oc2c1ccc(O)c2O [Aurone 1005, (Z)-2-(4-bromobenzylidene)-6,7-dihydroxybenzofuran-3(2H)-one] | 48 | 31.1 | > 100 | > 50 | – | – |
| CC(=O)N1/C(=C\c2ccccc2O)C(=O)c2ccccc21 [AA3A] | > 50 | < 1 | > 200 | > 50 | > 50 | – |
| O=C1/C(=C/C=C/c2ccccc2)Oc2ccccc21 [Aurone 2013] | 13.2 | 3.03 | 58 | 14.1 | 14.1 | IC50 ([1]; read-out: T. brucei IC50 dose): 13.2 µM; IC50 ([2]; read-out: IC50 L. amaz. (footnote c: value obtained from one trial)): 3.03 µM; IC50 ([4]; read-out: T. cruzi IC50 dose): 14.1 µM |
| O=C1/C(=C/c2ccccc2Cl)Nc2ccccc21 [AA11] | > 50 | 1.86 | > 200 | > 50 | – | IC50 ([4]; read-out: IC50 T. cruzi (footnote c: value obtained from one trial), Table 2, one trial): > 50 µM |
| O=C1/C(=C/c2ccc([N+](=O)[O-])cc2)Oc2ccccc21 [Aurone 2010] | 40.7 | 14.5 | 249 | 20 | 20 | – |
| CN(C)c1ccc(/C=C2\Oc3ccccc3C2=O)cc1 [Aurone 9087, (Z)-2-(4-(dimethylamino)benzylidene)benzofuran-3(2H)-one] | 39 | 1.65 | 144 | 5.38 | 5.38 | selectivity for T. cruzi (L6/Tc) [4]: 26.83; IC50 ([4]; read-out: T. cruzi IC50 dose): 5.38 µM |
| O=C1/C(=C/c2ccc(-c3ccccc3)cc2)Oc2ccccc21 [Aurone 2018] | > 50 | 7.22 | 298 | 34.4 | 34.4 | – |
| O=C1/C(=C/c2cccc(O)c2)Oc2ccccc21 [Aurone 9252, (Z)-2-(3-hydroxybenzylidene)benzofuran-3(2H)-one] | 34.9 | 1.52 | > 100 | 16.5 | 16.5 | – |
| Cc1ccc(/C=C2\Oc3ccccc3C2=O)o1 [Aurone 9251] | 35.3 | 2.36 | 85.5 | 3.57 | – | IC50 [3, 9]: 85.5 µM; IC50 [4, 10]: 3.57 µM |
| O=C1/C(=C/c2ccc(Cl)cc2)Oc2ccccc21 [Aurone 9019, (Z)-2-(4-chlorobenzylidene)benzofuran-3(2H)-one] | 34.7 | 41.5 | > 100 | 5.53 | 5.53 | Selectivity L6/Tb ([1]; Table 1): >2.88; Selectivity L6/Tb [1, 11]: >2.88; Selectivity L6/Tb [1, 12]: >2.88; Selectivity L6/La ([2]; Table 1): >2.41; Selectivity L6/La [2, 13]: >2.41; IC50 [3, 14]: > 100 µM; IC50 [3, 15]: > 100 µM; Selectivity L6/Tc [4, 16]: >18.08; Selectivity L6/Tc [4, 17]: >18.08; Selectivity L6/TC-I [4]: >18.08; IC50 [4, 18]: 5.53 µM |
| COc1ccc(/C=C2\Oc3ccccc3C2=O)cc1 [Aurone 6601, (Z)-2-(4-methoxybenzylidene)benzofuran-3(2H)-one] | 40.3 | 3.3 | > 100 | 10.8 | 10.8 | Selectivity L6/Tb ([1]; Table 1): >2.48; Selectivity L6/Tb [1, 11]: >2.48; Selectivity L6/Tb [1, 12]: >2.48; Selectivity L6/La ([2]; Table 1): >30.30; Selectivity L6/La [2, 13]: >30.30; IC50 [3, 14]: > 100 µM; IC50 [3, 15]: > 100 µM; Selectivity L6/Tc [4, 16]: >9.28; Selectivity L6/Tc [4, 17]: >9.28; Selectivity L6/TC-I [4]: >9.28; IC50 [4, 18]: 10.8 µM |
| O=C1/C(=C/c2ccc[nH]2)Oc2ccccc21 [Aurone 2021] | 38.9 | < 1 | 82.7 | 14.6 | 14.6 | IC50 [3, 9]: 82.7 µM; IC50 [4, 10]: 14.6 µM |
| COc1ccc(/C=C2\Oc3ccccc3C2=O)c(OC)c1OC [Aurone 2001] | 22.4 | 13.3 | > 100 | > 50 | – | – |
